Measurements from ChEMBL document CHEMBL3045481, “Insecticide-induced resurgence of the whitebacked planthopper Sogatella furcifera (Horvath) (Hemiptera: Delphacidae) on rice varieties with different levels of resistance” (Crop Prot, 2011).

Tests used:
Oryza sativa [1] = assay: Effect on total sugar level in Sogatella furcifera-sensitive Oryza sativa (rice) plant ARC6248 leaf sheath measured per gram of dry weight at 0.025% concentration (reference value: 25.98 mg/g dry wt); assay type: ADME, organism-based; conditions: in vivo
Oryza sativa [2] = assay: Effect on total sugar level in Sogatella furcifera-resistanct Oryza sativa (rice) plant PR116 leaf sheath measured per gram of dry weight at 0.025% concentration (reference value: 30.27 mg/g dry wt); assay type: ADME, organism-based; conditions: in vivo
Sogatella furcifera [3] = assay: Insecticidal activity against Sogatella furcifera on insect-sensitive rice plant ARC6248 assessed as growth index at 0.025% concentration (reference value: 2.38%); assay type: functional
Sogatella furcifera [4] = assay: Insecticidal activity against Sogatella furcifera on insect-resistanct rice plant PR116 assessed as growth index at 0.025% concentration (reference value: 6.02%); assay type: functional
Sogatella furcifera [5] = assay: Insecticidal activity against Sogatella furcifera on insect-resistanct rice plant PR116 assessed as nymphal duration at 0.025% concentration (reference value: 11.75 days); assay type: functional
Sogatella furcifera [6] = assay: Insecticidal activity against Sogatella furcifera on insect-sensitive rice plant ARC6248 assessed as resurgence ratio at 0.025% concentration; assay type: functional
Sogatella furcifera [7] = assay: Insecticidal activity against Sogatella furcifera on insect-resistanct rice plant PR116 assessed as resurgence ratio at 0.025% concentration; assay type: functional
Oryza sativa [8] = assay: Effect on total phenols level in Sogatella furcifera-resistanct Oryza sativa (rice) plant PR116 leaf sheath measured per gram of dry weight at 0.025% concentration (reference value: 5.75 mg/g dry wt); assay type: ADME, organism-based; conditions: in vivo
Oryza sativa [9] = assay: Effect on total amino acids level in Sogatella furcifera-resistanct Oryza sativa (rice) plant PR116 leaf blade measured per gram of dry weight at 0.025% concentration (reference value: 3.91 mg/g […]); assay type: ADME, organism-based; conditions: in vivo
Oryza sativa [10] = assay: Effect on total amino acids level in Sogatella furcifera-sensitive Oryza sativa (rice) plant ARC6248 leaf sheath measured per gram of dry weight at 0.025% concentration (reference value: 2.11 mg/g fresh wt); assay type: ADME, organism-based; conditions: in vivo
Oryza sativa [11] = assay: Effect on total amino acids level in Sogatella furcifera-sensitive Oryza sativa (rice) plant ARC6248 leaf blade measured per gram of dry weight at 0.025% concentration (reference value: 3.54 mg/g […]); assay type: ADME, organism-based; conditions: in vivo
Oryza sativa [12] = assay: Effect on total protein level in Sogatella furcifera-sensitive Oryza sativa (rice) plant ARC6248 leaf blade measured per gram of dry weight at 0.025% concentration (reference value: 17.67 mg/g […]); assay type: ADME, organism-based; conditions: in vivo
Oryza sativa [13] = assay: Effect on total protein level in Sogatella furcifera-resistanct Oryza sativa (rice) plant PR116 leaf blade measured per gram of dry weight at 0.025% concentration (reference value: 21.67 mg/g fresh wt); assay type: ADME, organism-based; conditions: in vivo
Oryza sativa [14] = assay: Effect on reducing sugar level in Sogatella furcifera-sensitive Oryza sativa (rice) plant ARC6248 leaf blade measured per gram of dry weight at 0.025% concentration (reference value: 8.37 mg/g dry wt); assay type: ADME, organism-based; conditions: in vivo
Oryza sativa [15] = assay: Effect on total phenols level in Sogatella furcifera-sensitive Oryza sativa (rice) plant ARC6248 leaf blade measured per gram of dry weight at 0.025% concentration (reference value: 17.08 mg/g dry wt); assay type: ADME, organism-based; conditions: in vivo
Oryza sativa [16] = assay: Effect on total phenols level in Sogatella furcifera-resistanct Oryza sativa (rice) plant PR116 leaf blade measured per gram of dry weight at 0.025% concentration (reference value: 8.08 mg/g dry wt); assay type: ADME, organism-based; conditions: in vivo
Oryza sativa [17] = assay: Effect on reducing sugar level in Sogatella furcifera-resistanct Oryza sativa (rice) plant PR116 leaf blade measured per gram of dry weight at 0.025% concentration (reference value: 9.35 mg/g dry wt); assay type: ADME, organism-based; conditions: in vivo
Oryza sativa [18] = assay: Effect on total sugar level in Sogatella furcifera-sensitive Oryza sativa (rice) plant ARC6248 leaf blade measured per gram of dry weight at 0.025% concentration (reference value: 34.05 mg/g dry wt); assay type: ADME, organism-based; conditions: in vivo
Oryza sativa [19] = assay: Effect on total sugar level in Sogatella furcifera-resistanct Oryza sativa (rice) plant PR116 leaf blade measured per gram of dry weight at 0.025% concentration (reference value: 36.16 mg/g dry wt); assay type: ADME, organism-based; conditions: in vivo
Oryza sativa [20] = assay: Effect on total amino acids level in Sogatella furcifera-resistanct Oryza sativa (rice) plant PR116 leaf sheath measured per gram of dry weight at 0.025% concentration (reference value: 2.58 mg/g […]); assay type: ADME, organism-based; conditions: in vivo
Oryza sativa [21] = assay: Effect on total protein level in Sogatella furcifera-sensitive Oryza sativa (rice) plant ARC6248 leaf sheath measured per gram of dry weight at 0.025% concentration (reference value: 6.11 mg/g […]); assay type: ADME, organism-based; conditions: in vivo
Oryza sativa [22] = assay: Effect on total protein level in Sogatella furcifera-resistanct Oryza sativa (rice) plant PR116 leaf sheath measured per gram of dry weight at 0.025% concentration (reference value: 7.06 mg/g fresh wt); assay type: ADME, organism-based; conditions: in vivo
Oryza sativa [23] = assay: Effect on total phenols level in Sogatella furcifera-sensitive Oryza sativa (rice) plant ARC6248 leaf sheath measured per gram of dry weight at 0.025% concentration (reference value: 12.75 mg/g dry wt); assay type: ADME, organism-based; conditions: in vivo
Sogatella furcifera [24] = assay: Insecticidal activity against Sogatella furcifera on insect-sensitive rice plant ARC6248 assessed as nymphal survival at 0.025% concentration (reference value: 34.17%); assay type: functional
Sogatella furcifera [25] = assay: Insecticidal activity against Sogatella furcifera on insect-resistanct rice plant PR116 assessed as nymphal survival at 0.025% concentration (reference value: 70.28%); assay type: functional
Sogatella furcifera [26] = assay: Insecticidal activity against Sogatella furcifera on insect-sensitive rice plant ARC6248 assessed as nymphal duration at 0.025% concentration (reference value: 14.48 days); assay type: functional
Oryza sativa [27] = assay: Effect on reducing sugar level in Sogatella furcifera-sensitive Oryza sativa (rice) plant ARC6248 leaf sheath measured per gram of dry weight at 0.025% concentration (reference value: 6.41 mg/g dry wt); assay type: ADME, organism-based; conditions: in vivo
Oryza sativa [28] = assay: Effect on reducing sugar level in Sogatella furcifera-resistanct Oryza sativa (rice) plant PR116 leaf sheath measured per gram of dry weight at 0.025% concentration (reference value: 7.50 mg/g dry wt); assay type: ADME, organism-based; conditions: in vivo

## CC1(C)[C@H](C(=O)O[C@H](C#N)c2cccc(Oc3ccccc3)c2)[C@@H]1C=C(Br)Br [DELTAMETHRIN]
Oryza sativa [1]
  Activity: 35.36 mg
Oryza sativa [2]
  Activity: 35.62 mg
Sogatella furcifera [3]
  growth inhibition (GI): 2.74%
Sogatella furcifera [4]
  growth inhibition (GI): 6.77%
Sogatella furcifera [5]
  Time: 11.63 days
Sogatella furcifera [6]
  Ratio: 1.28
Sogatella furcifera [7]
  Ratio: 1.75
Oryza sativa [8]
  Activity: 5.42 mg
Oryza sativa [9]
  Activity: 4.62 mg
Oryza sativa [10]
  Activity: 2.95 mg
Oryza sativa [11]
  Activity: 4.21 mg
Oryza sativa [12]
  Activity: 19.83 mg
Oryza sativa [13]
  Activity: 23.89 mg
Oryza sativa [14]
  Activity: 12.28 mg
Oryza sativa [15]
  Activity: 17.08 mg
Oryza sativa [16]
  Activity: 6.92 mg
Oryza sativa [17]
  Activity: 14.35 mg
Oryza sativa [18]
  Activity: 38.84 mg
Oryza sativa [19]
  Activity: 44.2 mg
Oryza sativa [20]
  Activity: 3.73 mg
Oryza sativa [21]
  Activity: 7.78 mg
Oryza sativa [22]
  Activity: 8 mg
Oryza sativa [23]
  Activity: 12 mg
Sogatella furcifera [24]
  Survival: 38.89%
Sogatella furcifera [25]
  Survival: 78.05%
Sogatella furcifera [26]
  Time: 14.32 days
Oryza sativa [27]
  Activity: 10.76 mg
Oryza sativa [28]
  Activity: 13.8 mg
